From patent US11572369B2, “Bicyclic pyridine compositions and methods of using the same for cancer therapy” (UNIVERSITY OF SOUTH CAROLINA, priority 2019, dated 2023)

How the values were obtained:
Assay in all cases: KINOMEscan
Type in all cases: binding
Details in all cases: 2000 nM
CSF1R-autoinhibited = target: T1, CSF1R-autoinhibited (Homo sapiens, UniProt P07333)
T1 construct: DNA label (for qPCR read-out); purchased DiscoveRx (KINOMEscan scanMAX service)

PRKCQ = target: T2, PRKCQ (Homo sapiens, UniProt Q04759)
T2 construct: purchased DiscoveRx (KINOMEscan scanMAX panel)

RIPK2 = target: T3, RIPK2 (Homo sapiens, UniProt O43353)
T3 construct: DNA label (qPCR read-out); purchased DiscoveRx (KINOMEscan ScanMAX panel)

CAMK1B = target: T4, CAMK1B (Homo sapiens, UniProt Q6P2M8)
T4 construct: DNA label (qPCR read-out); purchased KINOMEscan (ScanMAX panel service)

PDPK1 = target: T5, PDPK1 (Homo sapiens, UniProt O15530)
T5 construct: DNA label (for qPCR read-out); purchased DiscoveRx (KINOMEscan scanMAX service)

TNNI3K = target: T6, TNNI3K (Homo sapiens, UniProt Q59H18)
T6 construct: DNA label (qPCR read-out); purchased KINOMEscan (DiscoveRx) ScanMAX panel

TXK = target: T7, TXK (Homo sapiens, UniProt P42681)
T7 construct: DNA label (for qPCR read-out); purchased DiscoveRx (KINOMEscan scanMAX panel)

PRKD2 = target: T8, PRKD2 (Homo sapiens, UniProt Q9BZL6)
T8 construct: purchased DiscoveRx (KINOMEscan scanMAX panel)

PRKCD = target: T9, PRKCD (Homo sapiens, UniProt Q05655)
T9 construct: purchased DiscoveRx (KINOMEscan scanMAX panel)

PIK3CD = target: T10, PIK3CD (Homo sapiens, UniProt O00329)
T10 construct: DNA label; purchased DiscoveRx (KINOMEscan scanMAX panel)

PIKFYVE = target: T11, PIKFYVE (Homo sapiens, UniProt Q9Y2I7)
T11 construct: DNA label; purchased DiscoveRx (KINOMEscan scanMAX panel)

STK33 = target: T12, STK33 (Homo sapiens, UniProt Q9BYT3)
T12 construct: DNA label (for qPCR read-out); purchased DiscoveRx (KINOMEscan scanMAX panel, contract assay)

INSRR = target: T13, INSRR (Homo sapiens, UniProt P14616)
T13 construct: DNA label (qPCR read-out); purchased KINOMEscan (DiscoveRx) ScanMAX panel

NIM1 = target: T14, NIM1 (Homo sapiens, UniProt Q8IY84)
T14 construct: DNA label (qPCR read-out); purchased KINOMEscan (ScanMAX panel service)

HIPK4 = target: T15, HIPK4 (Homo sapiens, UniProt Q8NE63)
T15 construct: DNA label (for qPCR read-out); purchased DiscoveRx (KINOMEscan scanMAX panel, contract assay)

PAK2 = target: T16, PAK2 (Homo sapiens, UniProt Q13177)
T16 construct: purchased DiscoverX (KINOMEscan service)

MTOR = target: T17, MTOR (Homo sapiens, UniProt P42345)
T17 construct: DNA label (for qPCR read-out); purchased KINOMEscan scanMAX panel (DiscoveRx)

BLK = target: T18, BLK (Homo sapiens, UniProt P51451)
T18 construct: DNA label (for qPCR read-out); purchased KINOMEscan scanMAX panel (DiscoveRx)

MINK = target: T19, MINK (Homo sapiens, UniProt Q8N4C8)
T19 construct: DNA label (qPCR read-out); purchased KINOMEscan scanMAX panel (DiscoveRx)

BRAF = target: T20, BRAF (Homo sapiens, UniProt P15056)
T20 construct: DNA label (for qPCR read-out); purchased KINOMEscan scanMAX panel (DiscoveRx)

AKT1 = target: T21, AKT1 (Homo sapiens, UniProt P31749)
T21 construct: purchased DiscoveRx (KINOMEscan scanMAX panel, service)

FGFR3(G697C) = target: T22, FGFR3(G697C) (Homo sapiens, UniProt P22607, G697C)
T22 construct: purchased DiscoveRx (KINOMEscan scanMAX panel)

AMPK-alpha2 = target: T23, AMPK-alpha2 (Homo sapiens, UniProt P54646)
T23 construct: DNA label (qPCR read-out); purchased KINOMEscan scanMAX panel (DiscoveRx)

[1] = target: T24, TYK2(JH1domain-catalytic) (Homo sapiens, UniProt P29597)
T24 construct: JH1domain; DNA label (for qPCR read-out); purchased DiscoveRx (KINOMEscan scanMAX panel)

CDKL1 = target: T25, CDKL1 (Homo sapiens, UniProt Q00532)
T25 construct: purchased DiscoverX (KINOMEscan service)

ABL1-phosphorylated = ABL1-phosphorylated (Homo sapiens, UniProt P00519)
PRKD1 = target: T26, PRKD1 (Homo sapiens, UniProt Q15139)
T26 construct: purchased DiscoveRx (KINOMEscan scanMAX panel)

ZAP70 = ZAP70 (Homo sapiens, UniProt P43403)
TAOK2 = target: T27, TAOK2 (Homo sapiens, UniProt Q9UL54)
T27 construct: DNA label (for qPCR read-out); purchased DiscoveRx (KINOMEscan scanMAX panel, contract assay)

QSK = target: T28, QSK (Homo sapiens, UniProt Q9Y2K2)
T28 construct: purchased DiscoveRx (KINOMEscan scanMAX panel)

PIP5K1C = target: T29, PIP5K1C (Homo sapiens, UniProt O60331)
T29 construct: DNA label (qPCR read-out); purchased KINOMEscan (DiscoveRx) panel

CLK1 = target: T30, CLK1 (Homo sapiens, UniProt P49759)
T30 construct: DNA label (for qPCR read-out); purchased DiscoveRx (KINOMEscan scanMAX service)

PHKG2 = target: T31, PHKG2 (Homo sapiens, UniProt P15735)
T31 construct: DNA label (for qPCR read-out); purchased DiscoveRx (KINOMEscan scanMAX service)

VRK2 = target: T32, VRK2 (Homo sapiens, UniProt Q86Y07)
T32 construct: purchased KINOMEscan (DiscoveRx) panel service

ICK = target: T33, ICK (Homo sapiens, UniProt Q9UPZ9)
T33 construct: DNA label (qPCR read-out); purchased KINOMEscan (DiscoveRx) ScanMAX panel

RET(M918T) = target: T34, RET(M918T) (Homo sapiens, UniProt P07949, M918T)
T34 construct: purchased DiscoveRx (KINOMEscan scanMAX panel)
T34 sequence (P07949 29-1114 M918T): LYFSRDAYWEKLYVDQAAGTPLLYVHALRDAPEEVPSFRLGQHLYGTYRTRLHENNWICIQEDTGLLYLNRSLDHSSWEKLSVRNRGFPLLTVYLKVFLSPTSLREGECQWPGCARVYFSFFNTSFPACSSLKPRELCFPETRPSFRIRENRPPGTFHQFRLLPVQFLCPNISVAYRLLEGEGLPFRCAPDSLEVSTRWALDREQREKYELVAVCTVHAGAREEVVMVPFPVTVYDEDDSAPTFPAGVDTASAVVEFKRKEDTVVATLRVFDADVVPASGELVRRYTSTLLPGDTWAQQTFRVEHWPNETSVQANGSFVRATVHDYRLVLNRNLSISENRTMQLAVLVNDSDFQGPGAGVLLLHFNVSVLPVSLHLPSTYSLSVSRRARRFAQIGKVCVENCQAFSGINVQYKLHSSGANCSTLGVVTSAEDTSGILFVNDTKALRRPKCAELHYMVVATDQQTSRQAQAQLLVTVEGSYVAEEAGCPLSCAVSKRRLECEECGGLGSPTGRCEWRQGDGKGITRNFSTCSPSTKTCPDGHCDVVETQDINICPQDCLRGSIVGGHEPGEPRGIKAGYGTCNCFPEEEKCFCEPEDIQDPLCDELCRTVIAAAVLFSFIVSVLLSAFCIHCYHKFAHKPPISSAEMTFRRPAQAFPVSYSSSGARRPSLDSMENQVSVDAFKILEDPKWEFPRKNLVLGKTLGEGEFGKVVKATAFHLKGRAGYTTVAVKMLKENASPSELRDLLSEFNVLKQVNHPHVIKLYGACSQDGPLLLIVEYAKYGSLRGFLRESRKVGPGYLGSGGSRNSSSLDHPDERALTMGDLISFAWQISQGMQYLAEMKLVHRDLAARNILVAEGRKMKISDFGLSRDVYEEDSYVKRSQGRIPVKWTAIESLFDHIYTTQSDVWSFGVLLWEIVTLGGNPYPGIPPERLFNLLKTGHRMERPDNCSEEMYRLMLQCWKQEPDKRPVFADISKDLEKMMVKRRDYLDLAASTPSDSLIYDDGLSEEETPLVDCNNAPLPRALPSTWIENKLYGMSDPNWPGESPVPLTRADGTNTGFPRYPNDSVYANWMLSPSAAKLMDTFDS

T26 sequence (Q15139 whole entry): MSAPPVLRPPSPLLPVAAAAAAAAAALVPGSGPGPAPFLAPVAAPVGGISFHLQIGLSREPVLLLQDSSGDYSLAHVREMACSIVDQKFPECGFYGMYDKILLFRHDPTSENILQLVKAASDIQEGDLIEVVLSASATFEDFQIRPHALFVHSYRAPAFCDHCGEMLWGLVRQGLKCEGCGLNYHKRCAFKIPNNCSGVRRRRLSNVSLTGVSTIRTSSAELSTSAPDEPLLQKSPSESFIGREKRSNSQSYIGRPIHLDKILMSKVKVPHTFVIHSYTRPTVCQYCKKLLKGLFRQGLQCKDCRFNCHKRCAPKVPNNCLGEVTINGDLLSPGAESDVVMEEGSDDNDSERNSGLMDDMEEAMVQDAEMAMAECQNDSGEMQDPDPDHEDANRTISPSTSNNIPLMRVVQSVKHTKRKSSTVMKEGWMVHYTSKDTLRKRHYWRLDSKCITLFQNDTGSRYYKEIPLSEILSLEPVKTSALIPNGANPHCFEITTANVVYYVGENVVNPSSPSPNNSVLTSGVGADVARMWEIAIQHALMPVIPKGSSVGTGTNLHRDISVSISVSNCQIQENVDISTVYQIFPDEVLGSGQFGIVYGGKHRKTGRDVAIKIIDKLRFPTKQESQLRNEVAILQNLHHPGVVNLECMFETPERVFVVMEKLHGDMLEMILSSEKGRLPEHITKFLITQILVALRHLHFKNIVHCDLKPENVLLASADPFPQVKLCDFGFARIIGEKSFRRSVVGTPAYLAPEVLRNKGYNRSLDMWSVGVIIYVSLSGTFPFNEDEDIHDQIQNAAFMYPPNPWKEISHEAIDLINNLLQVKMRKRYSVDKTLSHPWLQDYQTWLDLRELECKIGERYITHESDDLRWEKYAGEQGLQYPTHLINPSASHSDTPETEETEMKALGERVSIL
T19 sequence (Q8N4C8 whole entry): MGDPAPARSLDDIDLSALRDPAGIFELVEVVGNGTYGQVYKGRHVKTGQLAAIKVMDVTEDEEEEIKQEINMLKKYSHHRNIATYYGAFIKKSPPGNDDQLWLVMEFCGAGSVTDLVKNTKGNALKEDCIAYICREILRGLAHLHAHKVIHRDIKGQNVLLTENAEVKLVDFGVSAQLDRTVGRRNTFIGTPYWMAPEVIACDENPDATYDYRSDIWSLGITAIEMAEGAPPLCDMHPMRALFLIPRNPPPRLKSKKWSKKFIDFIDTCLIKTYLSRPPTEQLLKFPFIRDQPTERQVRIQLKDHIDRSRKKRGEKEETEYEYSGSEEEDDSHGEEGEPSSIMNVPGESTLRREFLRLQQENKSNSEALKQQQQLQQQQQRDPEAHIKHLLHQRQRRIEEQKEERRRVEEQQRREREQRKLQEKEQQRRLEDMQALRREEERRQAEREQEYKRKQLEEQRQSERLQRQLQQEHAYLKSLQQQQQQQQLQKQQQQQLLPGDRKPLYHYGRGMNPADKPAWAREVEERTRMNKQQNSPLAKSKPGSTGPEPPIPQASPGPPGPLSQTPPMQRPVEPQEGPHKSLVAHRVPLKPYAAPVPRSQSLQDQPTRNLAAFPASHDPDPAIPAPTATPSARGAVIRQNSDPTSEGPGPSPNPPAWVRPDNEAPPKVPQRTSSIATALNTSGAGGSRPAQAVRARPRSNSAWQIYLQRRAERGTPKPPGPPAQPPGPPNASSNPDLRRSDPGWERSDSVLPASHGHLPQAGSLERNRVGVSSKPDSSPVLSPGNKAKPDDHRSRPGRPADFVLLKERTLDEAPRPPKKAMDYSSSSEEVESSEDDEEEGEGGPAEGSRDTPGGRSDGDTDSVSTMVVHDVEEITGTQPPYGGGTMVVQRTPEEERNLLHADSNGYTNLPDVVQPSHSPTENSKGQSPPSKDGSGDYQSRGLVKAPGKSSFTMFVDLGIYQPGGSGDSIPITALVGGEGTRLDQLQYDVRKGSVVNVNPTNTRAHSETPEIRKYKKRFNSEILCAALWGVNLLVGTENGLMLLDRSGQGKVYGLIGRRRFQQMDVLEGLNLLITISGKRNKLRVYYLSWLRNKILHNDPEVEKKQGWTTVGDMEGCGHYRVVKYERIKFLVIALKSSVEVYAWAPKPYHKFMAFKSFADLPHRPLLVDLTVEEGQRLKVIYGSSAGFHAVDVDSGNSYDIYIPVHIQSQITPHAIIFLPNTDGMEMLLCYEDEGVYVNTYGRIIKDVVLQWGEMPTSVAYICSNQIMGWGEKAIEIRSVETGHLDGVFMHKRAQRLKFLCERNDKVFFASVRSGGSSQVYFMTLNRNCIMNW
T31 sequence (P15735 whole entry): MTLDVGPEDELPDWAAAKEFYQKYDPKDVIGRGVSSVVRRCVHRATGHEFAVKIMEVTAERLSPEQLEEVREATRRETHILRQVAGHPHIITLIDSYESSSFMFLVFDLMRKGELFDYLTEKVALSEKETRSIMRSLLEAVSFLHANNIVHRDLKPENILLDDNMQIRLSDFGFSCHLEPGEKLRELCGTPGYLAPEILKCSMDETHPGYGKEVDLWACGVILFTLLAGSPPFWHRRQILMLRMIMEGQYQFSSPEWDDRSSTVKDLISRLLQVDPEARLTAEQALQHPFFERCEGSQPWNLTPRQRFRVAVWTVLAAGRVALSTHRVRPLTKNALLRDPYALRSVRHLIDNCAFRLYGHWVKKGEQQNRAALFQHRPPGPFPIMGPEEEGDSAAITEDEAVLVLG
Sequence of ZAP70 (P43403 whole entry): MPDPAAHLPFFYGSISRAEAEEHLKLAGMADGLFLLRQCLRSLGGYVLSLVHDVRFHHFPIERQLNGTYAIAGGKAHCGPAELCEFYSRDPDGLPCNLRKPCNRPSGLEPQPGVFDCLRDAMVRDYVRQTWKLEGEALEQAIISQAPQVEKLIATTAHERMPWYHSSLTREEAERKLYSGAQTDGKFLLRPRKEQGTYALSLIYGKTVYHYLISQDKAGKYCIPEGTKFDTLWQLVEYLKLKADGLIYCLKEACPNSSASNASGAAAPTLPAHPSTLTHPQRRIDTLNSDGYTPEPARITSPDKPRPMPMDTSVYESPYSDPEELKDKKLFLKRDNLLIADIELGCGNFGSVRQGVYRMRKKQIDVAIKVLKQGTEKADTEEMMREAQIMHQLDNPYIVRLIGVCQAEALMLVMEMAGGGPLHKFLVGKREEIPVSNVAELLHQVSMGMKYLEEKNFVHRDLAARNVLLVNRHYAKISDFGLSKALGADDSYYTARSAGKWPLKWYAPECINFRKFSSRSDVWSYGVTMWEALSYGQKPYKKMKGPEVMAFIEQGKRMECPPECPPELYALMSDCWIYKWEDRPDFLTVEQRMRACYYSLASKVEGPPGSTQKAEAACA
T29 sequence (O60331 whole entry): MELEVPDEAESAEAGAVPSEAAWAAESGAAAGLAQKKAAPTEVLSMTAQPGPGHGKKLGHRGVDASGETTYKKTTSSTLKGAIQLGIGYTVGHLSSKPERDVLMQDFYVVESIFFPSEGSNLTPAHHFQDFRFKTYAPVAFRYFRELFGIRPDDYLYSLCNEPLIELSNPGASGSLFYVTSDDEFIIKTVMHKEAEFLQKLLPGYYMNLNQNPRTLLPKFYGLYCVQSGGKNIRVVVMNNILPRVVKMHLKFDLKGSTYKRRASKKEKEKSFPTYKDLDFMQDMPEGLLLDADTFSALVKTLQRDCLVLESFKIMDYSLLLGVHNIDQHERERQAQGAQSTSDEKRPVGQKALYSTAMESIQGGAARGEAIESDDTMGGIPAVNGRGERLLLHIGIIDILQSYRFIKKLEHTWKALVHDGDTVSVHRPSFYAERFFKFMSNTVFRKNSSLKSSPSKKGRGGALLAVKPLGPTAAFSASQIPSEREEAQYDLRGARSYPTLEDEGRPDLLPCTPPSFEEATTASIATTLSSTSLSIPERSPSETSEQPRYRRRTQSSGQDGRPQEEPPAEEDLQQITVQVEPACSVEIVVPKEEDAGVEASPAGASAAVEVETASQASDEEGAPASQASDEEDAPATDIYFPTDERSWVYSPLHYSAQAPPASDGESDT

| Compound | % Ctrl (CSF1R-autoinhibited) | % Ctrl (PRKCQ) | % Ctrl (RIPK2) | % Ctrl (CAMK1B) | % Ctrl (PDPK1) | % Ctrl (TNNI3K) | % Ctrl (TXK) | % Ctrl (PRKD2) | % Ctrl (PRKCD) | % Ctrl (PIK3CD) | % Ctrl (PIKFYVE) | % Ctrl (STK33) | % Ctrl (INSRR) | % Ctrl (NIM1) | % Ctrl (HIPK4) | % Ctrl (PAK2) | % Ctrl (MTOR) | % Ctrl (BLK) | % Ctrl (MINK) | % Ctrl (BRAF) | other results |
| --- | --- | --- | --- | --- | --- | --- | --- | --- | --- | --- | --- | --- | --- | --- | --- | --- | --- | --- | --- | --- | --- |
| CN(C)C(=O)c1ccc(N2CCCN(c3ccnc4sc(C(N)=O)c(N)c34)CC2)cc1 [15u, 3-amino-4-(4-(4-(dimethylcarbamoyl)phenyl)-1,4-diazepan-1-yl)thieno[2,3-b]pyridine-2-carboxamide] | 88 % Ctrl | 90 % Ctrl | 100 % Ctrl | 100 % Ctrl | 100 % Ctrl | 100 % Ctrl | 93 % Ctrl | 56 % Ctrl | 100 % Ctrl | 94 % Ctrl | 91 % Ctrl | 100 % Ctrl | 99 % Ctrl | 56 % Ctrl | 100 % Ctrl | 91 % Ctrl | 88 % Ctrl | 100 % Ctrl | 100 % Ctrl | 100 % Ctrl | % Ctrl (AKT1): 100 % Ctrl; % Ctrl (FGFR3(G697C)): 95 % Ctrl; % Ctrl (AMPK-alpha2): 80 % Ctrl; % Ctrl [1]: 95 % Ctrl; % Ctrl (CDKL1): 100 % Ctrl; % Ctrl (ABL1-phosphorylated): 90 % Ctrl; % Ctrl (PRKD1): 88 % Ctrl; % Ctrl (ZAP70): 95 % Ctrl; % Ctrl (TAOK2): 92 % Ctrl; % Ctrl (QSK): 89 % Ctrl; % Ctrl (PIP5K1C): 64 % Ctrl; % Ctrl (CLK1): 88 % Ctrl; % Ctrl (PHKG2): 86 % Ctrl; % Ctrl (VRK2): 84 % Ctrl; % Ctrl (ICK): 84 % Ctrl; % Ctrl (RET(M918T)): 98 % Ctrl |
| [2H]C([2H])([2H])N(C(=O)c1ccc(N2CCCN(c3ccnc4sc(C(N)=O)c(N)c34)CC2)cc1)C([2H])([2H])[2H] [15u_D6, 3-amino-4-(4-(4-(bis(methyl-d3)carbamoyl)phenyl)-1,4-diazepan-1-yl)thieno[2,3-b]pyridine-2-carboxamide] | 83 % Ctrl | 87 % Ctrl | 93 % Ctrl | 70 % Ctrl | 96 % Ctrl | 100 % Ctrl | 100 % Ctrl | 90 % Ctrl | 92 % Ctrl | 71 % Ctrl | 98 % Ctrl | 100 % Ctrl | 89 % Ctrl | 78 % Ctrl | 100 % Ctrl | 94 % Ctrl | 97 % Ctrl | 92 % Ctrl | 87 % Ctrl | 96 % Ctrl | % Ctrl (AKT1): 100 % Ctrl; % Ctrl (FGFR3(G697C)): 100 % Ctrl; % Ctrl (AMPK-alpha2): 95 % Ctrl; % Ctrl [1]: 82 % Ctrl; % Ctrl (CDKL1): 92 % Ctrl; % Ctrl (ABL1-phosphorylated): 77 % Ctrl; % Ctrl (PRKD1): 92 % Ctrl; % Ctrl (ZAP70): 87 % Ctrl; % Ctrl (TAOK2): 93 % Ctrl; % Ctrl (QSK): 97 % Ctrl; % Ctrl (PIP5K1C): 25 % Ctrl; % Ctrl (CLK1): 68 % Ctrl; % Ctrl (PHKG2): 83 % Ctrl; % Ctrl (VRK2): 56 % Ctrl; % Ctrl (ICK): 66 % Ctrl; % Ctrl (RET(M918T)): 98 % Ctrl |
